Test results: patent publication US9181259B2 (LEO PHARMA A/S, priority 2012, dated 2015)
“Also recorded” adds a separate entry of the source. Structures can show the parent of a compound that is named as a salt.

Columns and labels:
NK1 receptor = target: T1, NK1 receptor (Homo sapiens, UniProt P25103); experiment: NK1 receptor mediated intracellular [Ca2+] mobilization in U251 MG cells using FLIPR; type: cell-based; details: antagonist potency against Substance P (EC80), normalized to 100 nM Aprepitant, read-out: U251MG (FLIPR pIC50) (converted)
T1 construct: Measurement of NK1 Receptor Mediated Intracellular [Ca^2+]; Mobilization in U251 MG Cells Using FLIPR; endogenous in cells; host or cells: U251 MG cells
Outline: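 Fluo-4-loaded U251 MG cells were preincubated with compound (0.5% DMSO final), with any agonist effect read for 5 min, then 10 min more at 37 °C before Substance P at EC80. Peak FLIPR fluorescence change was read, and IC50 came from a four-parameter fit as the midpoint between fitted top and bottom.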

[1] = Hepatic intrinsic clearance following incubation in human liver microsomes; type: in vitro ADME; details: NADPH regenerating system, 0-30 min, 37 °C
Outline: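 Compounds (from 50 µM working solution) are incubated with human liver microsomes diluted to 0.55 mg/mL in phosphate pH 7.4, with NADPH regeneration at 37 °C and sampling at 0–30 min. LC-MS/MS parent depletion gives kobs, scaled to mL/min/g liver. Eh uses 25.7 g liver/kg and 20.7 mL/min/kg blood flow.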

NK-1 receptor = target: T2, NK-1 receptor (Meriones unguiculatus, UniProt Q5DUB1); experiment: Gerbil scratching model (scratching induced by NK-1 agonist GR73632); type: in vivo, Mongolian gerbil; details: for attenuation of scratching induced in gerbils by the NK-1 selective agonist GR73632: topical application 1% w/v (20 μL) 20 min before i.d. GR73632 100 nmol/100 μL, male Mongolian gerbils
T2 construct: animals (male Mongolian gerbils) were shaved on the rostral part of the back; from tissue; host or cells: living male Mongolian gerbils (skin, topical application; in vivo)
Description: The gerbil was selected for this study as this species shares higher homology to the human in terms of NK-1 receptor pharmacology compared to other laboratory rodents.
Each test compound was tested on 11 or 12 animals. On the day of the test, the gerbils (four animals simultaneously) were put into a Plexiglas cage (42×42×35 cm) composed of four cells (20.5×20.5×35 cm) for 10 minutes of habituation. After this period, the test compound (1% w/v in acetone and transcutol 9:1) was topically applied on the shaven area in a volume of 20 μL. Topical application was performed using a Hamilton syringe (25 μL) and a square stencil of impermeable paper (1.5×1.5 cm) to allow application over a defined skin area (2.25 cm2). […] I.d. injection was made with a Hamilton syringe (250 μL) connected to a 27 gauge needle. Immediately after injection, animals were placed back into the same cell of the Plexiglas cage they were previously habituated in and their behaviour was recorded on video remotely for 30 minutes. The experimenter remained out of the observation room in order to minimize disturbance to the animals. The video was subsequently analysed to assess scratching behaviour. Scratching of the injection site by the hind paws was counted while scratching of other sites such as ears and snout were disregarded. Scratching episodes were measured over 10-minutes time intervals, for a total of 30 minutes.
Results were expressed as mean value±SEM. Statistical analysis was performed by a one-way ANOVA followed by LSD post hoc test with the exception of time-course analysis for a repeated-measure ANOVA followed by LSD post hoc test was performed.

T2 sequence (Q5DUB1 whole entry): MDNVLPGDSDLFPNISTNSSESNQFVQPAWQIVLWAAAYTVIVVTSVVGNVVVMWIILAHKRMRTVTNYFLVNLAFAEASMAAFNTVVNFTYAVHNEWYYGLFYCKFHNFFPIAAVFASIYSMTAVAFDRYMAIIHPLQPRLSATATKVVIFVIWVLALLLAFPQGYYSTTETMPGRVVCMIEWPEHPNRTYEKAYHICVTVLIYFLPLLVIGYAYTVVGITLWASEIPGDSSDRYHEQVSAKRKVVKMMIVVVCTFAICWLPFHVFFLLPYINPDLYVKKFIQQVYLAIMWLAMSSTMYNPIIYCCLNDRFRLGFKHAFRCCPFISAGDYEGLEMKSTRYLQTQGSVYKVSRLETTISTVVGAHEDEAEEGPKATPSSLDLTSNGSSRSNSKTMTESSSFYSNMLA
T1 sequence (P25103 whole entry): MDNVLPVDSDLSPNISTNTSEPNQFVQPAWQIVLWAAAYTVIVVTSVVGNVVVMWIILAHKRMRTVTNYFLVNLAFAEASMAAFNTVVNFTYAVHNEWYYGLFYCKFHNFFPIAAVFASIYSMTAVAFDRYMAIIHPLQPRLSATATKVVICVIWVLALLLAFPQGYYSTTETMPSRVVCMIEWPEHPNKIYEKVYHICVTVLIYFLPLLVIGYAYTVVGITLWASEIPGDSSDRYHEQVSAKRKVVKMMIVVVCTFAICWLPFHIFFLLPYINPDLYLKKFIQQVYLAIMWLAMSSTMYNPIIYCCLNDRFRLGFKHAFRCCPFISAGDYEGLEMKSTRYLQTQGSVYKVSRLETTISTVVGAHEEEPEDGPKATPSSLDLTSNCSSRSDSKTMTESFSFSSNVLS

| IC50 (NK1 receptor) | Human in vitro Clint (mL/min/g liver) [1] | attenuation of scratching induced in gerbils by the NK-1 selective agonist GR73632 (NK-1 receptor) | Molecule | induction of scratching (number of scratches) (NK-1 receptor; intradermal injection 100 nmol/100 μL, 30 min time course, repeated-measure ANOVA, gerbil) |
| --- | --- | --- | --- | --- |
| 0.0692 nM | 2.6 mL/min/g liver | able to attenuate the scratching | Cc1ccccc1C1C2CC(CCO)(CCO)C(=O)N2CCN1C(=O)N(C)Cc1cc(C(F)(F)F)cc(C(F)(F)F)c1 (single isomer, unassigned) [Compound 44, N-{[3,5-bis(trifluoromethyl)phenyl]methyl}-7,7-bis(2-hydroxyethyl)-N-methyl-1-(2-methylphenyl)-6-oxo-octahydropyrrolo[1,2-a]piperazine-2-carboxamide] | – |
| 0.12 nM | 9.5 mL/min/g liver | able to attenuate the scratching | Cc1ccccc1C1C2CC(CCO)(CCO)C(=O)N2CCN1C(=O)N(C)[C@H](C)c1cc(C(F)(F)F)cc(C(F)(F)F)c1 (single isomer, unassigned) [Compound 54] | – |
| 0.0794 nM | 17 mL/min/g liver | – | Cc1cc([C@@H](C)N(C)C(=O)N2CCN3C(=O)C(CCO)(CCO)C[C@H]3[C@@H]2c2ccccc2C)cc(C(F)(F)F)c1 [Compound 85, (1S,8aS)-7,7-bis(2-hydroxyethyl)-N-methyl-N-((R)-1-(3-methyl-5-(trifluoromethyl)phenyl)ethyl)-6-oxo-1-o-tolylhexahydropyrrolo[1,2-a]pyrazine-2(1H)-carboxamide] | – |
| 0.0501 nM | 14 mL/min/g liver | – | Cc1ccccc1[C@H]1[C@@H]2CC(CCO)(CCO)C(=O)N2CCN1C(=O)N(C)[C@H](C)c1cc(C(F)F)cc(C(F)(F)F)c1 [Compound 97, (1S,8aS)-N-((R)-1-(3-(difluoromethyl)-5-(trifluoromethyl)phenyl)ethyl)-7,7-bis(2-hydroxyethyl)-N-methyl-6-oxo-1-o-tolylhexahydropyrrolo[1,2-a]pyrazine-2(1H)-carboxamide] | – |
| 0.0398 nM | 7.6 mL/min/g liver | – | Cc1ccccc1[C@H]1[C@@H]2CC(CCO)(CCO)C(=O)N2CCN1C(=O)N(C)[C@@H](C)c1cc(Cl)cc(C(F)(F)F)c1 [Compound 90, (1S,8aS)-N-((S)-1-(3-chloro-5-(trifluoromethyl)phenyl)ethyl)-7,7-bis(2-hydroxyethyl)-N-methyl-6-oxo-1-o-tolylhexahydropyrrolo[1,2-a]pyrazine-2(1H)-carboxamide] | – |

The remaining lines, values behind:

| Molecule | IC50 (NK1 receptor) | Human in vitro Clint (mL/min/g liver) [1] | attenuation of scratching induced in gerbils by the NK-1 selective agonist GR73632 (NK-1 receptor) | induction of scratching (number of scratches) (NK-1 receptor; intradermal injection 100 nmol/100 μL, 30 min time course, repeated-measure ANOVA, gerbil) |
| --- | --- | --- | --- | --- |
| Cc1ccccc1C1C2CC(CO)C(=O)N2CCN1C(=O)N(C)[C@H](C)c1cc(C(F)(F)F)cc(C(F)(F)F)c1 (single isomer, unassigned) [Compound 55] | 0.151 nM | 2.4 mL/min/g liver | not able to attenuate the scratching | – |
| Cc1ccccc1C1C2CC(CCO)(CCO)CN2CCN1C(=O)N(C)[C@H](C)c1cc(C(F)(F)F)cc(C(F)(F)F)c1 (single isomer, unassigned) [Compound 60] | 0.339 nM | 6.1 mL/min/g liver | able to attenuate the scratching | – |
| Cc1ccccc1C1C2CC(CN3CCOCC3)C(=O)N2CCN1C(=O)N(C)Cc1cc(C(F)(F)F)cc(C(F)(F)F)c1 (single isomer, unassigned) [Compound 38] | 0.195 nM | 3.3 mL/min/g liver | not able to attenuate the scratching | – |
| 5-Aminopentanoyl-L-phenylalanyl-L-phenylalanyl-L-prolyl-L-(N-methyl)leucyl-L-methioninamide [GR73632, reference compound] | – | – | – | induced an increase in the number of scratches; also recorded: induced an increase of scratching |
| Cc1ccccc1[C@H]1[C@@H]2CCC(=O)N2CCN1C(=O)N(C)[C@H](C)c1cc(C(F)(F)F)cc(C(F)(F)F)c1 (single isomer, unassigned) [Compound 9] | 0.0347 nM | 4.5 mL/min/g liver | able to attenuate the scratching | – |
| Cc1cc([C@@H](CO)N(C)C(=O)N2CCN3C(=O)C(CCO)(CCO)C[C@H]3[C@@H]2c2ccccc2C)cc(C(F)(F)F)c1 [Compound 111, (1S,8aS)-N-((S)-2-hydroxy-1-(3-methyl-5-(trifluoromethyl)phenyl)ethyl)-7,7-bis(2-hydroxyethyl)-N-methyl-6-oxo-1-o-tolylhexahydropyrrolo[1,2-a]pyrazine-2(1H)-carboxamide] | 0.0617 nM | 3.7 mL/min/g liver | – | – |
| Cc1ccccc1[C@H]1[C@@H]2CC3(CCNCC3)C(=O)N2CCN1C(=O)N(C)[C@H](C)c1cc(C(F)(F)F)cc(C(F)(F)F)c1 [Compound 106, (1′S,8a′S)-N-((R)-1-(3,5-bis(trifluoromethyl)phenyl)ethyl)-N-methyl-6′-oxo-1′-o-tolyltetrahydro-1′H-spiro[piperidine-4,7′-pyrrolo[1,2-a]pyrazine]-2′(6′(6′H)-carboxamide, formic acid salt] | 0.115 nM | 0.19 mL/min/g liver | – | – |
| CCc1cc([C@@H](C)N(C)C(=O)N2CCN3C(=O)C(CCO)(CCO)C[C@H]3[C@@H]2c2ccccc2C)cc(C(F)(F)F)c1 [Compound 110, (1S,8aS)-N-((R)-1-(3-ethyl-5-(trifluoromethyl)phenyl)ethyl)-7,7-bis(2-hydroxyethyl)-N-methyl-6-oxo-1-o-tolylhexahydropyrrolo[1,2-a]pyrazine-2(1H)-carboxamide] | 0.0631 nM | 13 mL/min/g liver | – | – |
| COc1cc([C@@H](C)N(C)C(=O)N2CCN3C(=O)C(CCO)(CCO)C[C@H]3[C@@H]2c2ccccc2C)cc(C(F)(F)F)c1 [Compound 91, (1S,8aS)-7,7-bis(2-hydroxyethyl)-N-((R)-1-(3-methoxy-5-(trifluoromethyl)phenyl)ethyl)-N-methyl-6-oxo-1-o-tolylhexahydropyrrolo[1,2-a]pyrazine-2(1H)-carboxamide] | 0.0631 nM | 8.5 mL/min/g liver | – | – |
